Reference: patent US20090118274A1, “MONOCYCLIC AMINOPROPYL TETRAHYDRO-PYRAZOLO-PYRIDINE MODULATORS OF CATHEPSIN S” (priority 2007, published 2009)
Read-outs that look alike come from different tables or passages of the source.

Molecular target: T1, Recombinant human cathepsin S (CatS) (Homo sapiens, UniProt P25774)
T1 construct: made in house
Experiment: Recombinant human cathepsin S (CatS) fluorogenic substrate inhibition assay
Assay type: biochemical
Procedure: Recombinant human cathepsin S (CatS) was expressed in the baculovirus system and purified in one step with a thiopropyl-sepharose column. […] The assay is run in 150 mM sodium acetate pH 5.0 containing 1.5 mM DTT and 150 mM NaCl. […] Measurements are taken every min for 20 min. The rate is calculated from the slope of the increase in fluorescence and the percent inhibition is calculated from this.

[1] = average of results obtained, substrate Z-Valine-Valine-Arginine-AMC 10 μM, pH 5.0, read-out: CatS IC50

T1 sequence (P25774 115-331): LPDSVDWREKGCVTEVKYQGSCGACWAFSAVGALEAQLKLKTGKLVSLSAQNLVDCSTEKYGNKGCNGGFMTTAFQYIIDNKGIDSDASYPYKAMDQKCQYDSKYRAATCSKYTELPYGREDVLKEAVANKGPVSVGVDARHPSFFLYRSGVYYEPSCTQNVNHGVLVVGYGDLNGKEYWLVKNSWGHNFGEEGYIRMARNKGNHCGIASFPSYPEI

| SMILES | IC50 [1] [nM] | IC50 [nM] |
| --- | --- | --- |
| CS(=O)(=O)N1CCc2c(c(-c3ccc(Cl)c(CNC(=O)/C=C/c4ccccc4)c3)nn2CCCN2CCCC2)C1 [Example 219, N-{2-Chloro-5-[5-methanesulfonyl-1-(3-pyrrolidin-1-yl-propyl)-4,5,6,7-tetrahydro-1H-pyrazolo[4,3-c]pyridin-3-yl]-benzyl}-3-phenyl-acrylamide] | 640 |  |
| CS(=O)(=O)N1CCc2c(c(-c3ccc(C(F)(F)F)c(CNC(=O)c4cccc(O)c4)c3)nn2CC(O)CN2CCCC2)C1 (stereo not drawn) [Example 58, 3-Hydroxy-N-{5-[1-(2-hydroxy-3-pyrrolidin-1-yl-propyl)-5-methanesulfonyl-4,5,6,7-tetrahydro-1H-pyrazolo[4,3-c]pyridin-3-yl]-2-trifluoromethyl-benzyl}-benzamide] | 420 |  |
| CC(C)=CC(=O)NCc1cc(-c2nn(CC(O)CN3CCCC(CN(C)C)C3)c3c2CN(S(C)(=O)=O)CC3)ccc1C(F)(F)F (stereo not drawn) [Example 271, 3-Methyl-but-2-enoic acid 5-{1-[3-(3-dimethylaminomethyl-piperidin-1-yl)-2-hydroxy-propyl]-5-methanesulfonyl-4,5,6,7-tetrahydro-1H-pyrazolo[4,3-c]pyridin-3-yl}-2-trifluoromethyl-benzylamide] | 580 |  |
| CC(=O)Nc1cccc(C(=O)NCc2cc(-c3nn(CC(O)CN4CCCC4)c4c3CN(S(C)(=O)=O)CC4)ccc2C(F)(F)F)c1 (stereo not drawn) [Example 59, 3-Acetylamino-N-{5-[1-(2-hydroxy-3-pyrrolidin-1-yl-propyl)-5-methanesulfonyl-4,5,6,7-tetrahydro-1H-pyrazolo[4,3-c]pyridin-3-yl]-2-trifluoromethyl-benzyl}-benzamide] | 500 |  |
| CC(C)=CC(=O)NCc1cc(-c2nn(CC(O)CN3CCC(C)(C)CC3)c3c2CN(S(C)(=O)=O)CC3)ccc1C(F)(F)F (stereo not drawn) [Example 28, 3-Methyl-but-2-enoic acid 5-{1-[3-(4,4-dimethyl-piperidin-1-yl)-2-hydroxy-propyl]-5-methanesulfonyl-4,5,6,7-tetrahydro-1H-pyrazolo[4,3-c]pyridin-3-yl}-2-trifluoromethyl-benzylamide] | 60 |  |
| CC(C)=CC(=O)NCc1cc(-c2nn(CC(O)CN3CCC(N(C)C)CC3)c3c2CN(S(C)(=O)=O)CC3)ccc1C(F)(F)F (stereo not drawn) [Example 34, 3-Methyl-but-2-enoic acid 5-{1-[3-(4-dimethylamino-piperidin-1-yl)-2-hydroxy-propyl]-5-methanesulfonyl-4,5,6,7-tetrahydro-1H-pyrazolo[4,3-c]pyridin-3-yl}-2-trifluoromethyl-benzylamide] | 260 |  |
| CC(=O)NC1CCN(CC(O)Cn2nc(-c3ccc(C(F)(F)F)c(CNC(=O)c4ccc(F)cc4)c3)c3c2CCN(S(C)(=O)=O)C3)C1 (stereo not drawn) [Example 93, N-(5-{1-[3-(3-Acetylamino-pyrrolidin-1-yl)-2-hydroxy-propyl]-5-methanesulfonyl-4,5,6,7-tetrahydro-1H-pyrazolo[4,3-c]pyridin-3-yl}-2-trifluoromethyl-benzyl)-4-fluoro-benzamide] | 170 |  |
| CS(=O)(=O)N1CCc2c(c(-c3ccc(C(F)(F)F)c(CNc4ncccn4)c3)nn2CC(O)CN2CCCC2)C1 (stereo not drawn) [Example 65, 1-{5-Methanesulfonyl-3-[3-(pyrimidin-2-ylaminomethyl)-4-trifluoromethyl-phenyl]-4,5,6,7-tetrahydro-pyrazolo[4,3-c]pyridin-1-yl}-3-pyrrolidin-1-yl-propan-2-ol] | 16600 |  |
| O=C(NCc1cc(-c2nn(CC(O)CN3CCC4(CCNC4=O)CC3)c3c2CNCC3)ccc1C(F)(F)F)c1ccc(F)cc1 (stereo not drawn) [Example 238, 4-Fluoro-N-(5-{1-[2-hydroxy-3-(1-oxo-2,8-diaza-spiro[4.5]dec-8-yl)-propyl]-4,5,6,7-tetrahydro-1H-pyrazolo[4,3-c]pyridin-3-yl}-2-trifluoromethyl-benzyl)-benzamide] | 940 |  |
| CS(=O)(=O)N1CCc2c(c(-c3ccc(C(F)(F)F)c(C(=O)Nc4ccccc4)c3)nn2CC(O)CN2CCCC2)C1 (stereo not drawn) [Example 192, 5-[1-(2-Hydroxy-3-pyrrolidin-1-yl-propyl)-5-methanesulfonyl-4,5,6,7-tetrahydro-1H-pyrazolo[4,3-c]pyridin-3-yl]-N-phenyl-2-trifluoromethyl-benzamide] | 1600 |  |
| CS(=O)(=O)N1CCc2c(c(-c3ccc(C(F)(F)F)c(CNC(=O)c4ccccc4F)c3)nn2CC(O)CN2CCCC2)C1 (stereo not drawn) [Example 161, 2-Fluoro-N-{5-[1-(2-hydroxy-3-pyrrolidin-1-yl-propyl)-5-methanesulfonyl-4,5,6,7-tetrahydro-1H-pyrazolo[4,3-c]pyridin-3-yl]-2-trifluoromethyl-benzyl}-benzamide] | 370 |  |
| CS(=O)(=O)N1CCc2c(c(-c3ccc(C(F)(F)F)c(CNC(=O)c4ccc(F)cc4)c3)nn2CCCN2CCC(O)C2)C1 (stereo not drawn) [Example 40, 4-Fluoro-N-(5-{1-[3-(3-hydroxy-pyrrolidin-1-yl)-propyl]-5-methanesulfonyl-4,5,6,7-tetrahydro-1H-pyrazolo[4,3-c]pyridin-3-yl}-2-trifluoromethyl-benzyl)-benzamide] | 90 |  |
| CC(=O)NC1CCN(CC(Cn2nc(-c3ccc(Cl)c(CNC(=O)c4ccc(F)cc4)c3)c3c2CCN(S(C)(=O)=O)C3)OC(C)=O)CC1 (stereo not drawn) [Example 80, Acetic acid 1-(4-acetylamino-piperidin-1-ylmethyl)-2-(3-{4-chloro-3-[(4-fluoro-benzoylamino)-methyl]-phenyl}-5-methanesulfonyl-4,5,6,7-tetrahydro-pyrazolo[4,3-c]pyridin-1-yl)-ethyl ester] | 100 |  |
| CS(=O)(=O)N1CCc2c(c(-c3ccc(Cl)c(CNC(=O)c4ccc(F)cc4)c3)nn2CC(O)CN2CCC3(CCNC3=O)CC2)C1 (stereo not drawn) [Example 11, N-(2-Chloro-5-{1-[2-hydroxy-3-(1-oxo-2,8-diaza-spiro[4.5]dec-8-yl)-propyl]-5-methanesulfonyl-4,5,6,7-tetrahydro-1H-pyrazolo[4,3-c]pyridin-3-yl}-benzyl)-4-fluoro-benzamide] | 90 |  |
| CS(=O)(=O)N1CCc2c(c(-c3ccc(Cl)c(CC(=O)Nc4ccccc4)c3)nn2CCCN2CCOCC2)C1 [Example 291, 2-{2-Chloro-5-[5-methanesulfonyl-1-(3-morpholin-4-yl-propyl)-4,5,6,7-tetrahydro-1H-pyrazolo[4,3-c]pyridin-3-yl]-phenyl}-N-phenyl-acetamide] | 2850 |  |
| CS(=O)(=O)N1CCc2c(c(-c3ccc(C(F)(F)F)c(CNC(=O)Oc4ccc(F)cc4)c3)nn2CC(O)CN2CCCC2)C1 (stereo not drawn) [Example 213, {5-[1-(2-Hydroxy-3-pyrrolidin-1-yl-propyl)-5-methanesulfonyl-4,5,6,7-tetrahydro-1H-pyrazolo[4,3-c]pyridin-3-yl]-2-trifluoromethyl-benzyl}-carbamic acid 4-fluoro-phenyl ester] |  | 560 |
| CS(=O)(=O)N1CCc2c(c(-c3ccc(C(F)(F)F)c(CNC(=O)c4ccc5ccccc5c4)c3)nn2CC(O)CN2CCCC2)C1 (stereo not drawn) [Example 64, Naphthalene-2-carboxylic acid 5-[1-(2-hydroxy-3-pyrrolidin-1-yl-propyl)-5-methanesulfonyl-4,5,6,7-tetrahydro-1H-pyrazolo[4,3-c]pyridin-3-yl]-2-trifluoromethyl-benzylamide] | 370 |  |
| CS(=O)(=O)N1CCc2c(c(-c3ccc(Cl)c(CNC(=O)c4ccncc4)c3)nn2CCCN2CCCC2)C1 [Example 235, N-{2-Chloro-5-[5-methanesulfonyl-1-(3-pyrrolidin-1-yl-propyl)-4,5,6,7-tetrahydro-1H-pyrazolo[4,3-c]pyridin-3-yl]-benzyl}-isonicotinamide] | 890 |  |
